Key:
[1] = system: human cervical epitheloid carcinoma cells (HeLa); test: MTT cell viability assay, HeLa; type: cell-based; details: for IC50 ratio cisplatin/complex, HeLa: IC50 of cisplatin divided by IC50 of complex; for IC50: MTT, 37° C., 48 h, mean ± SD of three experiments
From the text: (§1) Human cervical epitheloid carcinoma cells (HeLa), human hepatocellular carcinoma cells (HepG2 and Hep3B), human breast cancer cells (MCF-7), human coloadenocarcinoma cells (HCT-8), and normal human lung fibroblast cells (CCD-19Lu) were purchased from American Type Culture Collection (ATCC) Rockville, Md., USA. The human hepatocellular cancinoma cells QGY-7703, and the multi-drug resistant cell line QGY-TR50 derived from QGY-7703, were generously provided by Prof. Yong Xie (The Hong Kong University of Science and Technology, Hong Kong PRC). QGY-TR50 cells were isolated and cultured as described (J. Zhou, S. C. Cheng, D. Luo, Y. Xie Biochem. Biophys. Res. Commun. 2001, 280, 1237-1242). Human nasopharyngeal carcinoma cells (SUNE1 and its cisplatin-resistant variant—CNE2) were derived from poorly differentiated NPC in Chinese patients and were generously provided by Dr. S. W. Tsao (The University of Hong Kong, Hong Kong PRC). Cell culture flasks and 96-well microtitre plates were from Nalge Nunc Int. Culture medium, other medium constituents and phosphate buffer saline (PBS) were obtained by Gibco BRL Rockville, Md., USA. Cell Proliferation kit I (MTT) was purchased from Roche. Mannheim, Germany.

[2] = system: human nasopharyngeal carcinoma cells (SUNE1); test: MTT cell viability assay, SUNE1; type: cell-based; details: for IC50 ratio cisplatin/complex, SUNE1: IC50 of cisplatin divided by IC50 of complex; for IC50: MTT, 37° C., 48 h, mean ± SD
From the text: as §1

[3] = system: normal human lung fibroblast cells (CCD-19Lu); test: MTT cell viability assay, CCD-19Lu; type: cell-based; details: for IC50 ratio cisplatin/complex, CCD-19Lu: IC50 of cisplatin divided by IC50 of complex; for IC50: MTT, 37° C., 48 h, mean ± SD
From the text: as §1

[4] = system: human breast cancer cells (MCF-7); test: MTT cell viability assay, MCF-7; type: cell-based; details: MTT, 37° C., 48 h; mean ± SD
From the text: as §1

[5] = system: human hepatocellular carcinoma cells (HepG2); test: MTT cell viability assay, HepG2; type: cell-based; details: for IC50: MTT, 37° C., 48 h, mean ± SD
From the text: as §1

[6] = system: human coloadenocarcinoma cells (HCT-8); test: MTT cell viability assay, HCT-8; type: cell-based; details: for IC50 ratio cisplatin/complex, HCT-8: IC50 of cisplatin divided by IC50 of complex; for IC50: MTT, 37° C., 48 h, mean ± SD
From the text: as §1

[7] = system: cisplatin-resistant variant (CNE2) of human nasopharyngeal carcinoma cells; test: MTT cell viability assay, CNE2; type: cell-based; details: for IC50: MTT, 37° C., 48 h, mean ± SD
From the text: as §1

[8] = system: human hepatocellular carcinoma cells (Hep3B); test: MTT cell viability assay, Hep3B; type: cell-based; details: 37° C., 48 h, mean ± SD
From the text: as §1

[9] = system: multi-drug resistant cell line QGY-TR50; test: MTT cell viability assay, QGY-TR50; type: cell-based, human; details: MTT, 37° C., 48 h; mean ± SD
From the text: as §1

[10] = system: human hepatocellular cancinoma cells QGY-7703; test: MTT cell viability assay, QGY-7703; type: cell-based; details: MTT, 37° C., 48 h; mean ± SD
From the text: as §1

[11] = system: calf thymus DNA; test: Absorption titration with calf thymus DNA; type: binding; details: Tris buffer
Protocol: The calf thymus DNA was purchased from Sigma-Aldrich Chemical Co. and was purified by phenol-chloroform extraction. The DNA was dissolved in buffer (5 mM Tris, 5 mM NaCl, pH 7.2). The concentration (per base pair) or calf thymus DNA was determined spectophotometrically on the basic of ε260, 13200 M^−1cm^−1bp.
Absorption Titration. Studying the interaction between drugs and DNA is imperative to pharmaceutical chemistry. Since complexation between a ligand molecule and a nucleic acid leads to optical changes, its binding can be studied using spectroscopic methods like fluorescence and electronic absorption spectroscopy (C. V. Kumar, E. H. Asuncion, J. Am. Chem. Soc. 1993, 115, 8547-8553). The binding interactions of lanthanide (III) porphyrin complexes with calf thymus DNA were investigated using UV-vis spectroscopy and depicted in FIGS. 9 and 10 (selected absorption curves were shown for clear plot). By monitoring wavelengths at 410 nm (complex 1) and 430 nm (complex 2b), successive additions of calf thymus DNA to the respective complexes in Tris buffer solution containing <5% DMSO were done until saturation. Moderate hyprochromicities of 27% and 23% in complexes 1 and 2b were found without significant bathochromic spectral shift. […] The values of binding constant K were calculated from a plot of D/Δεap versus D based on the following equation:
Where D is the concentration of DNA, Δεap=|ΔεA−ΔεB| wherein εA=Aobs/[complex], and Δε=|ΔεB−ΔεF|; εB and εF correspond to the extinction coefficients of DNA-bound lanthanide(III) porphyrin complex adduct and its free complex, respectively. By monitoring absorbance at 410 nm (complex 1) and 430 nm (complex 2b), plots of D/Δεap against D are inserted in FIGS. 9 and 10. Linear curves in two graphs were plotted with slopes of 4.63×10^−5 (complex 1) and 3.60×10^−5 (complex 2b) (both R=0.99).

[12] = Stability by UV-visible in DMSO/Tris buffer; type: physicochemical; details: DMSO/Tris buffer solution (1:9), 24 h, room temperature; complex 1 3 μM, complex 2b 7 μM
Protocol: UV-visible experiments. The absorption spectra of 3 μM of complex 1 in DMSO/Tris buffer solution (1:9) were monitored for 24 h. […] The complex was monitored over 24 h at room temperature and about 23% decrease in the Soret band intensity was recorded without any significant spectral shift in both Soret and Q-bands (FIG. 5). The absorption spectra of 7 μM of complex 2b in DMSO/Tris buffer solution (1:9) were also monitored for 24 h.

[13] = system: HeLa cells; test: Confocal microscopy with AO/EB staining; type: cell-based, human; details: complex 1 0.2 μM 20 h, complex 2b 10 μM 16 h
From the text: Confocal Microscopic Experiment. By examining cell morphology under scanning confocal microscopy, the type of cell death can be distinguished. Early phase of apoptosis is characterized by the formation of apoptotic bodies when the integrity of the cell membrane is maintained without cell lysis. On the other hand, necrosis is characterized by cell lyses with the leaking out of internal cellular components such as DNA. With ethidium bromide (DNA stain) and acridine orange (cell membrane stain) as staining agents, normal, apoptotic and necrotic cells can be distinguished under laser confocal microscopy (Chan et. al., Inorg. Chem. 2002, 41, 3161-3171).

[14] = Stability by UV-visible in presence of reduced glutathione; type: physicochemical; details: 6 mM GSH in DMSO/Tris buffer solution (1:9)
Protocol: Moreover, concomitant band broadening in spectrum of complex 1 was observed after 24 h. No significant spectral shift and formation of new absorption band were observed. […] Comparing with the spectra of complex 1, the decrease in Soret band intensity of complex 2b is less significant. The intensities are only found to decrease in 2% and 19% after 2 h and 24 h, respectively. Also, there is no significant spectral shift and formation of new absorption band were observed (FIG. 8).

[15] = system: HeLa cells; test: Effect of 3-MA on 1-induced cytotoxicity (MTT); type: cell-based, human; details: 3-MA 10 mM
Protocol: HeLa cells were pre-treated with 3-MA (10 mM) for 1 h, and then with 1 for 24 h as indicated. Cell viability was measured using MTT assay *, P<0.001. Effect of 3-MA on 1-induced cytotoxicity. Cells were seeded on 96-well microtitre plates (8×10^3 cells per well). After overnight incubation, the cells were pre-incubated with 3-methyladenine (3-MA, 10 mM) for 1 hour and then in the presence of 1 (DMSO<1%) for 24 h. Cell viability was measured by MTT assay as described before.

[16] = IC50 of cisplatin divided by IC50 of complex

C1=Cc2nc1c(-c1ccccc1)c1ccc([n-]1)c(-c1ccccc1)c1nc(c(-c3ccccc3)c3ccc([n-]3)c2-c2ccccc2)C=C1.CC(=O)C=C(C)[O-].[Yb+3] [Complex 2a]
IC50 ratio cisplatin/complex, HeLa [1]: 2.1
IC50 [1]: 6.9 ± 0.1 µM
IC50 ratio cisplatin/complex, SUNE1 [2]: 0.7
IC50 [2]: 16.2 ± 1.6 µM
IC50 ratio cisplatin/complex, CCD-19Lu [3]: 3.6
IC50 [3]: 25.1 ± 2.6 µM
IC50 [4]: > 100 µM
IC50 ratio cisplatin/complex, HepG2 [5, 16]: 0.3
IC50 [5]: 17.1 ± 1.3 µM
IC50 ratio cisplatin/complex, HCT-8 [6]: 1.7
IC50 [6]: 15.2 ± 6.1 µM

N.N.[Cl][Pt][Cl] [Cisplatin, cis-diamminedichloroplatinum[II], reference compound]
IC50 [1]: 14.2 ± 8.2 µM
IC50 [2]: 11.8 ± 1.2 µM
IC50 [3]: 90.6 ± 42.3 µM
IC50 [7]: 57.6 ± 4.6 µM
IC50 [8]: 39.8 ± 2.38 µM
IC50 [9]: 32.6 ± 1.94 µM
IC50 [4]: 35.4 ± 5 µM
IC50 [10]: 45.8 ± 4.13 µM
IC50 [5]: 4.76 ± 0.7 µM
IC50 [6]: 26.1 ± 2.1 µM

[Yb2(TPP)2]μ-C2O4 [Complex 2b]
IC50 ratio cisplatin/complex, HeLa [1]: 7.0
IC50 [1]: 2.1 ± 0.3 µM
hyprochromicity on addition of calf thymus DNA ([11]; <5% DMSO, until saturation, 410 nm (1), 430 nm (2b)): 23%
binding constant K with calf thymus DNA ([11]; UV-vis absorption titration, 20° C.): (5.49±0.8)×10^5 mol^−1dm^3
IC50 ratio cisplatin/complex, SUNE1 [2]: 1.2
IC50 [2]: 9.4 ± 0.3 µM
decrease in Soret band intensity [12]: 5%
IC50 ratio cisplatin/complex, CCD-19Lu [3]: 5.6
IC50 [3]: 16 ± 2.9 µM
IC50 ratio cisplatin/complex, CNE2 [7, 16]: 3.4
IC50 [7]: 16.8 ± 0.01 µM
cell morphology (type of cell death) under confocal microscopy [13]: both living and apoptotic cells were observed
IC50 [4]: > 100 µM
IC50 ratio cisplatin/complex, HCT-8 [6]: 4.6
IC50 [6]: 5.6 ± 1.5 µM
decrease in Soret band intensity, reduced glutathione, 2 h ([14]; 2 h): 2%
decrease in Soret band intensity, reduced glutathione, 24 h ([14]; 24 h): 19%

Cn1cnc(N)c2ncnc1-2 [Complex 3-MA, 3-methyladenine, reference compound]
cell viability after pre-treatment with 3-MA alone [15]: did not affect cell viability
